Measured values reported in patent publication US12083084B2, “Method for enhancing energy production and metabolism in cells” (REPLICON HEALTH OY, priority 2013, dated 2024).
“Also recorded” adds a separate entry of the source.

What was measured:
[1] = tested on: rat cortical neurons; assay: Protection against NMDA-induced excitotoxity; type: cell-based
Procedure: Cell culture. Cortical neurons were dissected from P1 rats and cultured in 96-well plates up to 7 days in the medium containing: neurobasal medium, 1.5% B27 supplement, 1 mM L-glutamine, penicillin/streptomycin.
Cell Viability/Cytotoxicity. Cell Viability was Detected by LDH Tests Like in Examples 1.1-1.2.
Cell treatment: concentration of DGAcs (10, 50 and 100 μg/ml) was added into cell culture medium at 4 DIV. After 24 h (at 5 DIV) 25% of medium was changed to fresh containing 1.5× concentration of DGAcs. Same treatment (change 25% with 1.5× concentration) was repeated at 6 DIV. The cells were transferred into Mg^2+-free Locke's buffer containing the same concentrations of DGAcs immediately before imaging experiments (at 7 DIV). For controls the same amount of medium was changed without addition of DGAcs.
In analyzing the results from the test set up starting at 7 DIV with 1 h NMDA stimulation (and 23 h follow up period), separate viability loss caused by CR can be taken into account by indexing 25 μM NMDA and 50 μM NMDA groups with the results of 0 NMDA control (see FIG. 14a). […] Even without correction for CR induced viability loss, DGAcs treatment induces very clear protection against NMDA-induced excitotoxity in 50 μM NMDA group (see FIG. 14b: “Viability after 24 hours with 1 h NMDA stimulation, indexed to 0 NMDA”)

[2] = tested on: primary human hepatocytes; assay: Cell viability by LDH release (CytoTox-One) in primary human hepatocytes; type: cell-based
Procedure: Primary human hepatocytes were purchased from Celsis In Vitro Technologies (1450 South Rolling Road Baltimore, MD 21227, USA). […] According to the information provided by the Celsis, hepatocytes from each donor should have at least 70% viability and more than 5 million viable cells. The medium for the culture of hepatocytes was provided by Celsis. They were InVitroGRO CP (for plating) medium (Z99029) and InVitroGRO HI (for incubation) medium (Z99009). Antibiotics (Torpedo Antibiotics Mix, Z990007) were also from Celsis. The thaw, plating and culture of cells were carried out according to the instruction provided by the Celsis In Vitro Technologies.
For the measurement of cell viability after treatment of test compound, CytoTox-One Homogeneous Membrane Integrity Assay kit (Promega, G7891) was used. The CytoTox-One Assay is a rapid fluorescent measure of the release of lactate dehydrogenase (LDH) from cells with a damaged membrane. The number of […] cells correlates to the fluorescence intensity determined by a fluorescence plate reader (Hidex Chameleon V multiplate reader, Hidex Oy, Turku, Finland) with excitation 544 nm and emission 590 nm. For the measurement of cellular reactive oxygen species (ROS), DCFDA Cellular ROS Detection Assay Kit from Abcam (ab113851) was used. Reactive oxygen species (ROS) assay kit (ab113851) uses the cell permeant reagent 2′,7′-dichlorofluorescein diacetate (DCFDA), a fluorogenic dye that measures hydroxyl, peroxyl and other ROS activity with the cell. The activity of ROS was measured by a fluorescence plate reader (Hidex) with excitation/emission wavelengths of 485 nm/535 nm.
The culture of primary hepatocytes was carried out based on the instructions provided by Celsis. After thawing, the cells were suspended in InVitroGRO CP medium. Thereafter the viability of cells was determined using the Trypan Blue exclusion method. Then the concentration of cells was adjusted using InVitroGRO CP medium, so about 30000-35000 cells/100 μl/well can be seeded in collagen I coated 96 well plate (BD, 734-0248).
After seeding, the cells were cultured overnight in the cell culture incubator (Sanyo MCO 18) at atmosphere of 95% air, 5% CO2 at 37° C. Thereafter, the culture medium for the cells was changed to InVitroGRO Hi (Hi Medium) containing test compound (D-glyceric acid calcium salt dehydrate) at the concentrations of 0, 0.2, 2 and 20 μg/ml (study 1, Table 1.1.1) and 0, 0.4, 2 and 10 μg/ml (study 2, Table 1.1.2).
After 24 h (in study 1) and 20 h (in studies 2-4) incubation medium was renewed. Second renewal of the incubation medium occurred at 48 h in study 1 and at 40 h in other studies. ROS and LDH were measured after 1.5-2 hours after last change of the medium, i.e. in a situation with moderate metabolic stress.
The measurement of LDH from medium (leaked LDH) and from cell and medium (total LDH) was carried out according to the instruction provided by the Promega (G7891). The plate was incubated at an incubator to achieve a temperature of 22° C. Thereafter, equal volume of CytoTox-ONE Reagent to cell culture medium (100 μl) was added to each well and mix for 30 seconds. Then they were incubated for 10 min at 22° C., and then 50 μl of Stop Solution was added to each well. After gentle mixing, the fluorescence signal was measured at an excitation wavelength of 560 nm and emission wavelength of 590 nm using the Hidex Chameleon V multiplate reader (Hidex Oy, Turku, Finland).
For the total LDH measurement, all the steps are same except a 2 μl of Lysis Solution (per 100 μl original volume) will be added to the each well to lyse the cells before CytoTox-ONE Reagents will be added.
For the LDH and ROS assays, individual values of each measurement were stored and average value of fluorescence signals of various repeats of each treatment at studied time point were calculated and compared. […] Viability (LDH) measurements contained 4-6 repeats depending on the study. […]

Compound | protection against NMDA-induced excitotoxity (LDH viability) ([1]; 25 μM NMDA and 50 μM NMDA groups, 1 h NMDA at 7 DIV + 24 h, indexed to 0 NMDA) | viability compared to 0 dose (in words) ([2]; primary human hepatocytes, standard treatment, moderate metabolic stress) | excitotoxity repetition by the private CRO ([1]; confirmatory study, in line with first results) | viability compared to 0 dose ([2]; donor alpha, 0.4 DGA dose, Hi Medium+palmitic acid, FIG. 10c) | hepatocytes viability increased in some cases by ([2]; donor alpha, FIG. 10c) | viability of cells increased on average by ([2]; primary human hepatocytes)
O.O.O=C([O-])[C@H](O)CO.O=C([O-])[C@H](O)CO.[Ca+2] [DGAcs, D-glyceric acid, calcium salt dehydrate] | very clear and significant protection | modestly increase the viability | – | – | – | –
O=C(O)[C@H](O)CO [DGA, D-glyceric acid] | – | – | not statistically significant | statistically significant decrease in viability; also recorded: decline is statistically significant | 40-60% | 5-10%
